Assays:
Zymoseptoria tritici = test: Leaf blotch of wheat (SEPTTR) disease control on wheat seedlings; type: in vivo; set-up: key to SEPTTR 1DP, HV activity at 100 ppm (% control rating) / SEPTTR 3DC, HV activity at 100 ppm (% control rating) / SEPTTR disease control, 1DP / SEPTTR disease control, 3DC / SEPTTR 1DP disease control rating, HV activity / SEPTTR 3DC disease control rating, HV activity / SEPTTR 3DC, LV activity at 125.1 g/H (% Control rating) / SEPTTR 1DP, LV activity at 125.1 g/H (% Control rating) / SEPTTR 1DP disease control rating, LV activity at 125.1 g/H / SEPTTR 3DC disease control rating, LV activity at 125.1 g/H / SEPTTR 3DC disease control rating, HV activity at 100 ppm / SEPTTR 1DP disease control rating, HV activity at 100 ppm / HV activity at 100 ppm SEPTTR 3DC (disease control rating) / HV activity at 100 ppm SEPTTR 1DP (disease control rating) / LV activity at 125.1 g/H SEPTTR 1DP (disease control rating) / LV activity at 125.1 g/H SEPTTR 3DC (disease control rating): A: > 80; B: ≤ 80; C: Not Tested; D: No Activity Observed in the Reported Assay; conditions: for SEPTTR 1DP disease control rating, LV activity at 125.1 g/H / SEPTTR 3DC disease control rating, LV activity at 125.1 g/H / SEPTTR 1DP, LV activity at 125.1 g/H (% Control rating) / SEPTTR 3DC, LV activity at 125.1 g/H (% Control rating) / LV activity at 125.1 g/H SEPTTR 1DP (disease control rating) / LV activity at 125.1 g/H SEPTTR 3DC (disease control rating): low volume application; for SEPTTR 1DP disease control rating, LV activity at 125.1 g/H / SEPTTR 1DP disease control rating, HV activity at 100 ppm: 1 day protectant; for SEPTTR 3DC disease control rating, LV activity at 125.1 g/H / SEPTTR 3DC disease control rating, HV activity at 100 ppm: 3 day curative; for SEPTTR 1DP disease control rating, HV activity at 100 ppm / SEPTTR 3DC disease control rating, HV activity at 100 ppm: high volume application; for SEPTTR 1DP disease control rating, HV activity / SEPTTR 3DC disease control rating, HV activity: HV application at 100 ppm; for SEPTTR 1DP disease control rating, HV activity / SEPTTR 1DP, LV activity at 125.1 g/H (% Control rating) / LV activity at 125.1 g/H SEPTTR 1DP (disease control rating): 1 Day Protectant; for SEPTTR 1DP disease control rating, HV activity / SEPTTR 3DC disease control rating, HV activity / LV activity at 125.1 g/H SEPTTR 1DP (disease control rating) / LV activity at 125.1 g/H SEPTTR 3DC (disease control rating): wheat leaf blotch; for SEPTTR 3DC disease control rating, HV activity / SEPTTR 3DC, LV activity at 125.1 g/H (% Control rating) / LV activity at 125.1 g/H SEPTTR 3DC (disease control rating): 3 Day Curative
Puccinia triticina = test: Wheat brown rust (PUCCRT) disease control on wheat seedlings; type: in vivo; set-up: key to PUCCRT 3DC, HV activity at 100 ppm (% control rating) / PUCCRT disease control, 3DC / PUCCRT 1DP disease control rating, HV activity / PUCCRT 3DC disease control rating, HV activity / PUCCRT 3DC, LV activity at 125.1 g/H (% Control rating) / PUCCRT 1DP, LV activity at 125.1 g/H (% Control rating) / PUCCRT 3DC disease control rating, LV activity at 125.1 g/H / PUCCRT 1DP disease control rating, LV activity at 125.1 g/H / PUCCRT 3DC disease control rating, HV activity at 100 ppm / PUCCRT 1DP disease control rating, HV activity at 100 ppm / HV activity at 100 ppm PUCCRT 3DC (disease control rating) / LV activity at 125.1 g/H PUCCRT 1DP (disease control rating) / LV activity at 125.1 g/H PUCCRT 3DC (disease control rating): A: > 80; B: ≤ 80; C: Not Tested; D: No Activity Observed in the Reported Assay; conditions: for PUCCRT 1DP disease control rating, LV activity at 125.1 g/H / PUCCRT 3DC disease control rating, LV activity at 125.1 g/H / PUCCRT 1DP, LV activity at 125.1 g/H (% Control rating) / PUCCRT 3DC, LV activity at 125.1 g/H (% Control rating) / LV activity at 125.1 g/H PUCCRT 1DP (disease control rating) / LV activity at 125.1 g/H PUCCRT 3DC (disease control rating): low volume application; for PUCCRT 1DP disease control rating, LV activity at 125.1 g/H / PUCCRT 1DP disease control rating, HV activity at 100 ppm: 1 day protectant; for PUCCRT 3DC disease control rating, LV activity at 125.1 g/H / PUCCRT 3DC disease control rating, HV activity at 100 ppm: 3 day curative; for PUCCRT 1DP disease control rating, HV activity at 100 ppm / PUCCRT 3DC disease control rating, HV activity at 100 ppm: high volume application; for PUCCRT 1DP disease control rating, HV activity / PUCCRT 3DC disease control rating, HV activity: HV application at 100 ppm; for PUCCRT 1DP disease control rating, HV activity / PUCCRT 1DP, LV activity at 125.1 g/H (% Control rating) / LV activity at 125.1 g/H PUCCRT 1DP (disease control rating): 1 Day Protectant; for PUCCRT 1DP disease control rating, HV activity / PUCCRT 3DC disease control rating, HV activity / LV activity at 125.1 g/H PUCCRT 1DP (disease control rating) / LV activity at 125.1 g/H PUCCRT 3DC (disease control rating): wheat brown rust; for PUCCRT 3DC disease control rating, HV activity / PUCCRT 3DC, LV activity at 125.1 g/H (% Control rating) / LV activity at 125.1 g/H PUCCRT 3DC (disease control rating): 3 Day Curative

COc1ccnc(C(=O)NC(C)C(=O)OC(C)C(Oc2cccc3ccccc23)C(C)C)c1OC(C)=O (stereo not drawn) [Cmpd 859]
SEPTTR 1DP disease control rating, LV activity at 125.1 g/H (Zymoseptoria tritici): B (≤ 80)
SEPTTR 3DC disease control rating, LV activity at 125.1 g/H (Zymoseptoria tritici): D
PUCCRT 1DP disease control rating, LV activity at 125.1 g/H (Puccinia triticina): A (> 80)
PUCCRT 3DC disease control rating, LV activity at 125.1 g/H (Puccinia triticina): B (≤ 80)

CCC(CC)C(Oc1cc(F)cc(Cl)c1)C(C)OC(=O)C(C)NC(=O)c1nccc(OC)c1OC(C)=O (stereo not drawn) [Cmpd 677]
SEPTTR 1DP disease control rating, LV activity at 125.1 g/H (Zymoseptoria tritici): B (≤ 80)
SEPTTR 3DC disease control rating, LV activity at 125.1 g/H (Zymoseptoria tritici): B (≤ 80)
PUCCRT 1DP disease control rating, LV activity at 125.1 g/H (Puccinia triticina): B (≤ 80)
PUCCRT 3DC disease control rating, LV activity at 125.1 g/H (Puccinia triticina): B (≤ 80)

COc1ccnc(C(=O)N[C@@H](C)C(=O)O[C@@H](C)[C@H](Oc2cccc(Cl)c2)C2CCCC2)c1O [Cmpd 841, (S)-(1R,2S)-1-(3-chlorophenoxy)-1-cyclopentylpropan-2-yl-2-(3-hydroxy-4-methoxypicolinamido)propanoate]
SEPTTR 1DP disease control rating, HV activity at 100 ppm (Zymoseptoria tritici): A (> 80)
SEPTTR 3DC disease control rating, HV activity at 100 ppm (Zymoseptoria tritici): A (> 80)
PUCCRT 1DP disease control rating, HV activity at 100 ppm (Puccinia triticina): A (> 80)
PUCCRT 3DC disease control rating, HV activity at 100 ppm (Puccinia triticina): A (> 80)

COc1ccnc(C(=O)NC(C(=O)OC(C)C(Oc2ccc3ccccc3c2)C(C)C)C(C)C)c1O (stereo not drawn) [Cmpd 401]
SEPTTR 1DP disease control rating, HV activity (Zymoseptoria tritici): B (≤ 80)
SEPTTR 3DC disease control rating, HV activity (Zymoseptoria tritici): B (≤ 80)
PUCCRT 1DP disease control rating, HV activity (Puccinia triticina): A (> 80)
PUCCRT 3DC disease control rating, HV activity (Puccinia triticina): B (≤ 80)

COc1ccnc(C(=O)N[C@@H](C)C(=O)O[C@@H](C)[C@H](Oc2ccc(-c3ccccc3)cc2)C(C)C)c1OC(C)=O [Cmpd 625]
SEPTTR 1DP, LV activity at 125.1 g/H (% Control rating) (Zymoseptoria tritici): D
SEPTTR 3DC, LV activity at 125.1 g/H (% Control rating) (Zymoseptoria tritici): D
PUCCRT 1DP, LV activity at 125.1 g/H (% Control rating) (Puccinia triticina): A (> 80)
PUCCRT 3DC, LV activity at 125.1 g/H (% Control rating) (Puccinia triticina): B (≤ 80)

COc1ccnc(C(=O)NC(C)C(=O)OC(C)C(Oc2ccccc2)c2ccccc2)c1OC(=O)C(C)C (stereo not drawn) [Cmpd 871]
SEPTTR 1DP disease control rating, LV activity at 125.1 g/H (Zymoseptoria tritici): A (> 80)
SEPTTR 3DC disease control rating, LV activity at 125.1 g/H (Zymoseptoria tritici): B (≤ 80)
PUCCRT 1DP disease control rating, LV activity at 125.1 g/H (Puccinia triticina): D
PUCCRT 3DC disease control rating, LV activity at 125.1 g/H (Puccinia triticina): D

COc1ccnc(C(=O)NC(C)C(=O)OC(C)C(OCC2CC2)c2cccc(-c3ccccc3)c2)c1O (stereo not drawn) [Cmpd 442]
SEPTTR 1DP disease control rating, HV activity (Zymoseptoria tritici): D
SEPTTR 3DC disease control rating, HV activity (Zymoseptoria tritici): B (≤ 80)
PUCCRT 1DP disease control rating, HV activity (Puccinia triticina): B (≤ 80)
PUCCRT 3DC disease control rating, HV activity (Puccinia triticina): B (≤ 80)

C=CC[C@@H](OCC(=C)C)[C@H](C)OC(=O)[C@H](C)NC(=O)c1nccc(OC)c1O [Cmpd 1019]
SEPTTR 1DP disease control rating, HV activity at 100 ppm (Zymoseptoria tritici): B (≤ 80)
SEPTTR 3DC disease control rating, HV activity at 100 ppm (Zymoseptoria tritici): A (> 80)
PUCCRT 1DP disease control rating, HV activity at 100 ppm (Puccinia triticina): A (> 80)
PUCCRT 3DC disease control rating, HV activity at 100 ppm (Puccinia triticina): A (> 80)

C=CC[C@@H](OCC(=C)C)[C@H](C)OC(=O)[C@H](C)NC(=O)c1nccc(OC)c1OC(C)=O [Cmpd 1074]
LV activity at 125.1 g/H SEPTTR 1DP (disease control rating) (Zymoseptoria tritici): D
LV activity at 125.1 g/H SEPTTR 3DC (disease control rating) (Zymoseptoria tritici): D
LV activity at 125.1 g/H PUCCRT 1DP (disease control rating) (Puccinia triticina): D
LV activity at 125.1 g/H PUCCRT 3DC (disease control rating) (Puccinia triticina): B (≤ 80)

COc1cc(O[C@H](CC(C)C)[C@H](C)OC(=O)[C@H](C)NC(=O)c2nccc(OC)c2OC(C)=O)ccc1Cl [Cmpd 1116]
LV activity at 125.1 g/H SEPTTR 1DP (disease control rating) (Zymoseptoria tritici): A (> 80)
LV activity at 125.1 g/H SEPTTR 3DC (disease control rating) (Zymoseptoria tritici): A (> 80)
LV activity at 125.1 g/H PUCCRT 1DP (disease control rating) (Puccinia triticina): A (> 80)
LV activity at 125.1 g/H PUCCRT 3DC (disease control rating) (Puccinia triticina): A (> 80)

CC[C@@H](CCC(C)C)[C@H](OCC1CC1)[C@H](C)OC(=O)[C@H](C)NC(=O)c1nccc(OC)c1OCOC(C)=O [Cmpd 503]
SEPTTR 1DP, LV activity at 125.1 g/H (% Control rating) (Zymoseptoria tritici): B (≤ 80)
SEPTTR 3DC, LV activity at 125.1 g/H (% Control rating) (Zymoseptoria tritici): A (> 80)
PUCCRT 1DP, LV activity at 125.1 g/H (% Control rating) (Puccinia triticina): A (> 80)
PUCCRT 3DC, LV activity at 125.1 g/H (% Control rating) (Puccinia triticina): A (> 80)

CCC(CC)C(Oc1ccc(Cl)cc1)C(C)OC(=O)C(CC(C)C)NC(=O)c1nccc(OC)c1OC(C)=O (stereo not drawn) [Cmpd 686]
SEPTTR 1DP disease control rating, LV activity at 125.1 g/H (Zymoseptoria tritici): D
SEPTTR 3DC disease control rating, LV activity at 125.1 g/H (Zymoseptoria tritici): B (≤ 80)
PUCCRT 1DP disease control rating, LV activity at 125.1 g/H (Puccinia triticina): D
PUCCRT 3DC disease control rating, LV activity at 125.1 g/H (Puccinia triticina): D

From US20180000085A1, “USE OF PICOLINAMIDE COMPOUNDS WITH FUNGICIDAL ACTIVITY” (DOW AGROSCIENCES LLC, priority 2014, published 2018)
